Assay results taken from patent US5965088A, “Method for providing rapid disinfection of contact lenses” (priority 1997, dated 1999).
Where two headings read alike, the source gives them in different places.

Legend:
[1] = test system: Candida albicans (ATCC 10231); assay: Antimicrobial efficacy (stand-alone log reduction), C. albicans; assay type: cell-based; conditions: for log reduction at 4 ppm / log reduction at 4 µg/mL: Candida albicans; for log reduction at 4 µg/mL: 4.0 ppm alexidine in ReNu MPS; for Log Reduction C. albicans: PAPB 0.0
Procedure: (§1) This Example illustrates the microbiocidal efficacy of solutions according to the present invention. The antimicrobial efficacy of each of various compositions for the chemical disinfection of contact lenses was evaluated. Microbial challenge inoculums were prepared using Pseudomonas aeruginosa (ATCC 9027), Staphylococcus aureus (ATCC 6538), Serratia marcescens (ATCC 13880), Candida albicans (ATCC 10231), and Fusarium solani (ATCC 36031). The test organisms were cultured on appropriate agar and the cultures were harvested using sterile DPBST (Dulbecco's Phosphate Buffered Saline plus 0.05% w/v polysorbate 80) or a suitable diluent and transferred to a suitable vessel. Spore suspensions were filtered through sterile glass wool to remove hyphal fragments. Serratia marcescens, as appropriate, was filtered (eg., through a 1.2 μ filter) to clarify the suspension. After harvesting, the suspension was centrifuged at no more than 5000× g for a maximum of 30 minutes at 20-25° C. The supernatant was poured off and resuspended in DPBST or other suitable diluent. The suspension was centrifuged a second time, and resuspended in DPBST or other suitable diluent. All challenge bacterial and fungal cell suspensions were adjusted with DPBST or other suitable diluent to 1×10^7 -10^8 cfu/mL. The appropriate cell concentration may be estimated by measuring the turbidity of the suspension, for example using a spectrophotometer at a preselected wavelength, for example 490 nm. One tube was prepared containing a minimum of 10 mL of test solution per challenge organism. Each tube of the solution to be tested was inoculated with a suspension of the test organism sufficient to provide a final count of 1.0×10^5 -10^6 cfu/mL, the volume of the inoculum not exceeding 1% of the sample volume. Dispersion of the inoculum was ensured by vortexing the sample for at least 15 seconds. The inoculated product was stored at 10-25° C. Aliquots in the amount of 1.0 mL were taken of the inoculated product for determination of viable counts after certain time periods of disinfection. The time points for the bacteria were 25, 50, 75, and 100% of the minimum disinfection time. Yeast and mold were tested at an additional timepoint of at least 400% of the minimum disinfection time. The suspension was mixed well by vortexing vigorously for at least 5 second. The 1.0 mL aliquots removed at the specified time intervals were subjected to a suitable series of decimal dilutions in validated neutralizing media. The suspensions were mixed vigorously and incubated for a suitable period of time to allow for neutralization of the microbial agent. The viable count of organisms was determined in appropriate dilutions by preparation of triplicate plates of trypticase soy (TSA) agar for bacteria and Sabouraud dextrose agar (SDA) for mold and yeast. The bacterial recovery plates were incubated at 30-35° C. for 2-4 days. The yeast was incubated at 20-30° C. for 2-4 days and mold recovery plates at 20-25° C. for 3-7 days. The average number of colony forming units was determined on countable plates. Countable plates refer to 30-300 cfu/plates for bacteria and yeast, and 8 to 80 cfu/plate for mold except when colonies are observed only for the 10^0 or 10^-1 dilution plates. The microbial reduction was then calculated at the specified time points. […] Following inoculation in a validated neutralizing broth and incubation for an appropriate period of time, the inoculum control must be between 1.0×10^5 -1.0×10^6 cfu/mL
(§2) The solutions were evaluated based on the performance requirement referred to as the "Stand-Alone Procedure for Disinfecting Products" (hereafter the "stand-alone test") and is based on the Disinfection Efficacy Testing for contact lens care products under the Draft Premarket Notification (510(k)) Guidance Document For Contact Lens Care Products dated Apr. 1, 1996, prepared by the U.S. Food and Drug Administration, Division of Ophthalmic Devices. […]

[2] = test system: Fusarium solani (ATCC 36031); assay: Antimicrobial efficacy (stand-alone log reduction), F. solani; assay type: cell-based; conditions: for log reduction at 4 µg/mL: 4.0 ppm alexidine in ReNu MPS
Procedure: as §1, §2

CCCCC(CC)CNC(=N)NC(=N)NCCCCCCNC(=N)NC(=N)NCC(CC)CCCC.Cl.Cl (stereo not shown) [Alexidine.2HCl, 1,1 '-hexamethylenebis(5-(2-ethylhexyl)-biguanide) dihydrochloride]
Log Reduction ([1]; 4.0 ppm, Ex. 8, different batch aged 19 months at 25 °C, 15 min, dihydrochloride): < 1 log | log reduction at 4 ppm ([1]; ATCC10231, 2.5 min, 4.0 ppm, aged 18 months, Exp. 1, 2.5 min, read-out: Log Reduction): 0 | log reduction at 4 ppm ([1]; ATCC10231, 2.5 min, 4.0 ppm, aged 18 months, Exp. 2, 2.5 min, read-out: Log Reduction): 0.1 | log reduction at 4 ppm ([1]; ATCC10231, 2.5 min, 4.0 ppm, aged 18 months, Exp. 3, 2.5 min, read-out: Log Reduction): 0 | log reduction at 4 ppm ([1]; ATCC10231, 5 min, 4.0 ppm, aged 18 months, Exp. 1, 5.0 min, read-out: Log Reduction): 0 | log reduction at 4 ppm ([1]; ATCC10231, 5 min, 4.0 ppm, aged 18 months, Exp. 2, 5.0 min, read-out: Log Reduction): 0.1 | log reduction at 4 ppm ([1]; ATCC10231, 5 min, 4.0 ppm, aged 18 months, Exp. 3, 5.0 min, read-out: Log Reduction): 0 | log reduction at 4 ppm ([1]; ATCC10231, 0.125 h, 4.0 ppm, aged 18 months, Exp. 1, 7.5 min, read-out: Log Reduction): 0.6 | log reduction at 4 ppm ([1]; ATCC10231, 0.125 h, 4.0 ppm, aged 18 months, Exp. 2, 7.5 min, read-out: Log Reduction): 0.5 | log reduction at 4 ppm ([1]; ATCC10231, 0.125 h, 4.0 ppm, aged 18 months, Exp. 3, 7.5 min, read-out: Log Reduction): 0.4 | log reduction at 4 ppm ([1]; ATCC10231, 10 min, 4.0 ppm, aged 18 months, Exp. 1, 10.0 min, read-out: Log Reduction): 0.7 | log reduction at 4 ppm ([1]; ATCC10231, 10 min, 4.0 ppm, aged 18 months, Exp. 2, 10.0 min, read-out: Log Reduction): 0.6 | log reduction at 4 ppm ([1]; ATCC10231, 10 min, 4.0 ppm, aged 18 months, Exp. 3, 10.0 min, read-out: Log Reduction): 0.4 | log reduction at 4 ppm ([1]; ATCC10231, 0.25 h, 4.0 ppm, Ex. 6, aged 19 months at 25 °C, 15 min): 1.9 | log reduction at 4 ppm ([1]; ATCC10231, 0.25 h, 4.0 ppm, Ex. 7, different lot aged 18 months, 15 min, read-out: Log Reduction): 1 | log reduction at 4 ppm ([1]; ATCC10231, 0.25 h, 4.0 ppm, Ex. 8, different batch aged 19 months at 25 °C, 15 min, read-out: Log Reduction): 0.9 | log reduction at 4 ppm ([1]; ATCC10231, 0.5 h, 4.0 ppm, Ex. 6, aged 19 months at 25 °C, 30 min, read-out: Log Reduction): 2.5 | log reduction at 4 ppm ([1]; ATCC10231, 0.5 h, 4.0 ppm, Ex. 7, different lot aged 18 months, 30 min, read-out: Log Reduction): 1.7 | log reduction at 4 ppm ([1]; ATCC10231, 0.5 h, 4.0 ppm, Ex. 8, different batch aged 19 months at 25 °C, 30 min, read-out: Log Reduction): 1.7 | log reduction at 4 ppm ([1]; ATCC10231, 40 min, 4.0 ppm, aged 18 months, Exp. 1, 40.0 min, read-out: Log Reduction): 2.1 | log reduction at 4 ppm ([1]; ATCC10231, 40 min, 4.0 ppm, aged 18 months, Exp. 2, 40.0 min, read-out: Log Reduction): 1 | log reduction at 4 ppm ([1]; ATCC10231, 40 min, 4.0 ppm, aged 18 months, Exp. 3, 40.0 min, read-out: Log Reduction): 1 | log reduction at 4 ppm ([1]; ATCC10231, 0.75 h, 4.0 ppm, Ex. 6, aged 19 months at 25 °C, 45 min): 2.7 | log reduction at 4 ppm ([1]; ATCC10231, 0.75 h, 4.0 ppm, Ex. 7, different lot aged 18 months, 45 min, read-out: Log Reduction): 1.9 | log reduction at 4 ppm ([1]; ATCC10231, 0.75 h, 4.0 ppm, Ex. 8, different batch aged 19 months at 25 °C, 45 min): 1.8 | log reduction at 4 µg/mL ([1]; ATCC10231, 1 h, 1 hr): 2.9 | log reduction at 4 ppm ([1]; ATCC10231, 1 h, 4.0 ppm, Ex. 6, aged 19 months at 25 °C, 60 min, read-out: Log Reduction): 2.8 | log reduction at 4 ppm ([1]; ATCC10231, 1 h, 4.0 ppm, Ex. 7, different lot aged 18 months, 60 min, read-out: Log Reduction): 2.1 | log reduction at 4 ppm ([1]; ATCC10231, 1 h, 4.0 ppm, Ex. 8, different batch aged 19 months at 25 °C, 60 min, read-out: Log Reduction): 1.9 | log reduction at 4 µg/mL ([1]; ATCC10231, 2 h, 2 hr): 4.3 | log reduction at 4 µg/mL ([1]; ATCC10231, 3 h, 3 hr): > 4.7 | log reduction at 4 µg/mL ([1]; ATCC10231, 4 h, 4 hr): 3.9 | log reduction at 4 ppm ([1]; ATCC10231, 4 h, 4.0 ppm, Ex. 6, aged 19 months at 25 °C, 4 h, read-out: Log Reduction): 3.4 | log reduction at 4 ppm ([1]; ATCC10231, 4 h, 4.0 ppm, Ex. 7, different lot aged 18 months, 4 hrs): 3.1 | log reduction at 4 ppm ([1]; ATCC10231, 4 h, 4.0 ppm, Ex. 8, different batch aged 19 months at 25 °C, 4 hrs, read-out: Log Reduction): 2.6 | log reduction at 4 µg/mL ([1]; ATCC10231, 24 h, 24 hr): 4.6 | Log Reduction C. albicans ([1]; alexidine 0.5 ppm, 5 min): 0.3 log | Log Reduction C. albicans ([1]; alexidine 0.5 ppm, 15 min): 1.0 log | Log Reduction C. albicans ([1]; alexidine 0.5 ppm, 30 min): -0.2 log | Log Reduction C. albicans ([1]; alexidine 0.5 ppm, 60 min): -0.1 log | Log Reduction C. albicans ([1]; alexidine 2.6 ppm, 5 min): 0.4 log | Log Reduction C. albicans ([1]; alexidine 2.6 ppm, 15 min): 0.5 log | Log Reduction C. albicans ([1]; alexidine 2.6 ppm, 30 min): 0.5 log | Log Reduction C. albicans ([1]; alexidine 2.6 ppm, 60 min): 1.4 log | log reduction at 4 ppm ([2]; ATCC36031, 2.5 min, aged 18 months, Exp. 1, 2.5 min): 2.5 | log reduction at 4 ppm ([2]; ATCC36031, 2.5 min, aged 18 months, Exp. 2, 2.5 min): 2.5 | log reduction at 4 ppm ([2]; ATCC36031, 2.5 min, aged 18 months, Exp. 3, 2.5 min): 2.2 | log reduction at 4 ppm ([2]; ATCC36031, 5 min, aged 18 months, Exp. 1, 5.0 min): 4.3 | log reduction at 4 ppm ([2]; ATCC36031, 5 min, aged 18 months, Exp. 2, 5.0 min): 4.1 | log reduction at 4 ppm ([2]; ATCC36031, 5 min, aged 18 months, Exp. 3, 5.0 min): 2.1 | log reduction at 4 ppm ([2]; ATCC36031, 0.125 h, aged 18 months, Exp. 1, 7.5 min): 4.6 | log reduction at 4 ppm ([2]; ATCC36031, 0.125 h, aged 18 months, Exp. 2, 7.5 min): 4.4 | log reduction at 4 ppm ([2]; ATCC36031, 0.125 h, aged 18 months, Exp. 3, 7.5 min): 2.4 | log reduction at 4 ppm ([2]; ATCC36031, 10 min, aged 18 months, Exp. 1, 10.0 min): > 4.6 | log reduction at 4 ppm ([2]; ATCC36031, 10 min, aged 18 months, Exp. 2, 10.0 min): 4.5 | log reduction at 4 ppm ([2]; ATCC36031, 10 min, aged 18 months, Exp. 3, 10.0 min): 2.5 | log reduction at 4 ppm ([2]; ATCC36031, 0.25 h, Ex. 6, aged 19 months at 25 °C, 15 min): 3.4 | log reduction at 4 ppm ([2]; ATCC36031, 0.25 h, Ex. 7, different lot aged 18 months, 15 min): 2.4 | log reduction at 4 ppm ([2]; ATCC36031, 0.25 h, Ex. 8, different batch aged 19 months at 25 °C, 15 min): 3.6 | log reduction at 4 ppm ([2]; ATCC36031, 0.5 h, Ex. 6, aged 19 months at 25 °C, 30 min): 4.3 | log reduction at 4 ppm ([2]; ATCC36031, 0.5 h, Ex. 7, different lot aged 18 months, 30 min): > 4.5 | log reduction at 4 ppm ([2]; ATCC36031, 0.5 h, Ex. 8, different batch aged 19 months at 25 °C, 30 min): > 4.6 | log reduction at 4 ppm ([2]; ATCC36031, 40 min, aged 18 months, Exp. 1, 40.0 min): > 4.6 | log reduction at 4 ppm ([2]; ATCC36031, 40 min, aged 18 months, Exp. 2, 40.0 min): > 4.5 | log reduction at 4 ppm ([2]; ATCC36031, 40 min, aged 18 months, Exp. 3, 40.0 min): > 4.6 | log reduction at 4 ppm ([2]; ATCC36031, 0.75 h, Ex. 6, aged 19 months at 25 °C, 45 min): 4.4 | log reduction at 4 ppm ([2]; ATCC36031, 0.75 h, Ex. 7, different lot aged 18 months, 45 min): > 4.5 | log reduction at 4 ppm ([2]; ATCC36031, 0.75 h, Ex. 8, different batch aged 19 months at 25 °C, 45 min): > 4.6 | log reduction at 4 µg/mL ([2]; ATCC36031, 1 h, 1 hr): 3.1 | log reduction at 4 ppm ([2]; ATCC36031, 1 h, Ex. 6, aged 19 months at 25 °C, 60 min): 4.2 | log reduction at 4 ppm ([2]; ATCC36031, 1 h, Ex. 7, different lot aged 18 months, 60 min): > 4.5 | log reduction at 4 ppm ([2]; ATCC36031, 1 h, Ex. 8, different batch aged 19 months at 25 °C, 60 min): > 4.6 | log reduction at 4 µg/mL ([2]; ATCC36031, 2 h, 2 hr): 4.1 | log reduction at 4 µg/mL ([2]; ATCC36031, 3 h, 3 hr): 4.5 | log reduction at 4 µg/mL ([2]; ATCC36031, 4 h, 4 hr): 4.6 | log reduction at 4 ppm ([2]; ATCC36031, 4 h, Ex. 6, aged 19 months at 25 °C, 4 h): > 4.4 | log reduction at 4 ppm ([2]; ATCC36031, 4 h, Ex. 7, different lot aged 18 months, 4 hrs): > 4.5 | log reduction at 4 ppm ([2]; ATCC36031, 4 h, Ex. 8, different batch aged 19 months at 25 °C, 4 hrs): > 4.6 | log reduction at 4 µg/mL ([2]; ATCC36031, 24 h, 24 hr): > 4.6
